Assay results reported in PubChem BioAssay (NCI).
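Briefly, cells in 96-well plates were exposed to five compound concentrations for 48 h, and endpoints were estimated by linear interpolation. TGI is the concentration that stops growth completely.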

What was measured:
Test in all cases: growth of human tumour cells (NCI), 48 h
NCI-H226 lung = test system: NCI-H226 lung
ACHN renal = test system: ACHN renal
HCT-116 colon = test system: HCT-116 colon
SF-539 CNS = test system: SF-539 CNS
HCT-15 colon = test system: HCT-15 colon
SF-295 CNS = test system: SF-295 CNS
MCF7 breast = test system: MCF7 breast
NCI-H23 lung = test system: NCI-H23 lung
OVCAR-5 ovarian = test system: OVCAR-5 ovarian
MDA-MB-231 breast = test system: MDA-MB-231 breast
SK-MEL-5 melanoma = test system: SK-MEL-5 melanoma
M14 melanoma = test system: M14 melanoma
OVCAR-8 ovarian = test system: OVCAR-8 ovarian
UACC-257 melanoma = test system: UACC-257 melanoma
MOLT-4 leukemia = test system: MOLT-4 leukemia
SK-OV-3 ovarian = test system: SK-OV-3 ovarian
PC-3 prostate = test system: PC-3 prostate
SW-620 colon = test system: SW-620 colon
IGROV1 ovarian = test system: IGROV1 ovarian
K-562 leukemia = test system: K-562 leukemia
T-47D breast = test system: T-47D breast
HCC-2998 colon = test system: HCC-2998 colon
TK-10 renal = test system: TK-10 renal
DU-145 prostate = test system: DU-145 prostate
MDA-MB-435 = test system: MDA-MB-435
SN12C renal = test system: SN12C renal
UACC-62 melanoma = test system: UACC-62 melanoma
RPMI-8226 leukemia = test system: RPMI-8226 leukemia
SF-268 CNS = test system: SF-268 CNS
A549 NSCLC = test system: A549 NSCLC
OVCAR-3 ovarian = test system: OVCAR-3 ovarian
KM12 colon = test system: KM12 colon
HOP-62 NSCLC = test system: HOP-62 NSCLC
786-0 renal = test system: 786-0 renal
UO-31 renal = test system: UO-31 renal
EKVX NSCLC = test system: EKVX NSCLC
NCI/ADR-RES ovarian = test system: NCI/ADR-RES ovarian
NCI-H522 lung = test system: NCI-H522 lung
U251 CNS = test system: U251 CNS
SK-MEL-2 melanoma = test system: SK-MEL-2 melanoma
BT-549 breast = test system: BT-549 breast
MALME-3M melanoma = test system: MALME-3M melanoma
LOX IMVI melanoma = test system: LOX IMVI melanoma
CCRF-CEM leukemia = test system: CCRF-CEM leukemia
CAKI-1 renal = test system: CAKI-1 renal
HT29 colon = test system: HT29 colon
MDA-N = test system: MDA-N
SNB-75 CNS = test system: SNB-75 CNS
HOP-92 NSCLC = test system: HOP-92 NSCLC
A498 renal = test system: A498 renal
NCI-H460 lung = test system: NCI-H460 lung
SNB-19 CNS = test system: SNB-19 CNS
SK-MEL-28 melanoma = test system: SK-MEL-28 melanoma
OVCAR-4 ovarian = test system: OVCAR-4 ovarian
COLO 205 colon = test system: COLO 205 colon
RXF 393 renal = test system: RXF 393 renal
SR leukemia = test system: SR leukemia

SMILES: O=c1c2c(oc3ccccc13)-c1ccccc1OC2
- TGI (NCI-H226 lung): > 100 µM
- TGI (ACHN renal): > 100 µM
- TGI (HCT-116 colon): > 100 µM
- TGI (SF-539 CNS): 72.7 µM
- TGI (HCT-15 colon): > 100 µM
- TGI (SF-295 CNS): > 100 µM
- TGI (MCF7 breast): > 100 µM
- TGI (NCI-H23 lung): > 100 µM
- TGI (OVCAR-5 ovarian): > 100 µM
- TGI (MDA-MB-231 breast): 47.4 µM
- TGI (SK-MEL-5 melanoma): > 100 µM
- TGI (M14 melanoma): > 100 µM
- TGI (OVCAR-8 ovarian): > 100 µM
- TGI (UACC-257 melanoma): > 100 µM
- TGI (MOLT-4 leukemia): > 100 µM
- TGI (SK-OV-3 ovarian): 53.2 µM
- TGI (PC-3 prostate): > 100 µM
- TGI (SW-620 colon): > 100 µM
- TGI (IGROV1 ovarian): > 100 µM
- TGI (K-562 leukemia): > 100 µM
- TGI (T-47D breast): > 100 µM
- TGI (HCC-2998 colon): > 100 µM
- TGI (TK-10 renal): > 100 µM
- TGI (DU-145 prostate): > 100 µM
- TGI (MDA-MB-435): > 100 µM
- TGI (SN12C renal): > 100 µM
- TGI (UACC-62 melanoma): > 100 µM
- TGI (RPMI-8226 leukemia): > 100 µM
- TGI (SF-268 CNS): > 100 µM
- TGI (A549 NSCLC): > 100 µM
- TGI (OVCAR-3 ovarian): > 100 µM
- TGI (KM12 colon): > 100 µM
- TGI (HOP-62 NSCLC): > 100 µM
- TGI (786-0 renal): 64.2 µM
- TGI (UO-31 renal): > 100 µM
- TGI (EKVX NSCLC): > 100 µM
- TGI (NCI/ADR-RES ovarian): > 100 µM
- TGI (NCI-H522 lung): > 100 µM
- TGI (U251 CNS): > 100 µM
- TGI (SK-MEL-2 melanoma): > 100 µM
- TGI (BT-549 breast): > 100 µM
- TGI (MALME-3M melanoma): > 100 µM
- TGI (LOX IMVI melanoma): > 100 µM
- TGI (CCRF-CEM leukemia): > 100 µM
- TGI (CAKI-1 renal): > 100 µM
- TGI (HT29 colon): > 100 µM
- TGI (MDA-N): > 100 µM
- TGI (SNB-75 CNS): 50.7 µM

SMILES: O=[N+]([O-])/C(C(Cl)=C(Cl)Cl)=C(\N1CCOCC1)n1nnc2ccccc21
- TGI (NCI-H226 lung): 58.7 µM
- TGI (ACHN renal): 34.9 µM
- TGI (HOP-92 NSCLC): 37.6 µM
- TGI (HCT-116 colon): > 100 µM
- TGI (SF-539 CNS): 32.8 µM
- TGI (HCT-15 colon): 29.6 µM
- TGI (A498 renal): 37.8 µM
- TGI (NCI-H460 lung): 45.6 µM
- TGI (SF-295 CNS): 34.9 µM
- TGI (MCF7 breast): 56.1 µM
- TGI (NCI-H23 lung): 32.7 µM
- TGI (SNB-19 CNS): 33.7 µM
- TGI (OVCAR-5 ovarian): 44 µM
- TGI (MDA-MB-231 breast): 35.1 µM
- TGI (SK-MEL-5 melanoma): 35.3 µM
- TGI (M14 melanoma): 33.4 µM
- TGI (UACC-257 melanoma): 50.7 µM
- TGI (MOLT-4 leukemia): 72.3 µM
- TGI (SK-OV-3 ovarian): 79.2 µM
- TGI (PC-3 prostate): 30.8 µM
- TGI (T-47D breast): 56.8 µM
- TGI (TK-10 renal): 63.8 µM
- TGI (SK-MEL-28 melanoma): 42.6 µM
- TGI (DU-145 prostate): 37.5 µM
- TGI (MDA-MB-435): 41 µM
- TGI (SN12C renal): 42.9 µM
- TGI (UACC-62 melanoma): 46.7 µM
- TGI (RPMI-8226 leukemia): > 100 µM
- TGI (SF-268 CNS): 40 µM
- TGI (A549 NSCLC): 42.7 µM
- TGI (OVCAR-3 ovarian): 42.2 µM
- TGI (KM12 colon): 45.6 µM
- TGI (HOP-62 NSCLC): 36.2 µM
- TGI (786-0 renal): 44.8 µM
- TGI (OVCAR-4 ovarian): 76.1 µM
- TGI (UO-31 renal): 33 µM
- TGI (EKVX NSCLC): 35.2 µM
- TGI (NCI/ADR-RES ovarian): 65.1 µM
- TGI (NCI-H522 lung): 34.1 µM
- TGI (U251 CNS): 30.3 µM
- TGI (COLO 205 colon): 34.7 µM
- TGI (SK-MEL-2 melanoma): 47.7 µM
- TGI (BT-549 breast): 33.1 µM
- TGI (MALME-3M melanoma): 35.1 µM
- TGI (CAKI-1 renal): 31.6 µM
- TGI (MDA-N): 42.5 µM
- TGI (SNB-75 CNS): 42.4 µM

SMILES: CSc1ccc(C(=C=C=C(c2ccc(SC)s2)c2ccc(SC)s2)c2ccc(SC)s2)s1
- TGI (NCI-H226 lung): > 10 µM
- TGI (ACHN renal): > 10 µM
- TGI (HOP-92 NSCLC): > 10 µM
- TGI (HCT-116 colon): > 10 µM
- TGI (SF-539 CNS): > 10 µM
- TGI (HCT-15 colon): > 10 µM
- TGI (A498 renal): > 10 µM
- TGI (SF-295 CNS): > 10 µM
- TGI (NCI-H23 lung): > 10 µM
- TGI (SNB-19 CNS): > 10 µM
- TGI (OVCAR-5 ovarian): > 10 µM
- TGI (MDA-MB-231 breast): > 10 µM
- TGI (SK-MEL-5 melanoma): > 10 µM
- TGI (M14 melanoma): > 10 µM
- TGI (RXF 393 renal): > 10 µM
- TGI (OVCAR-8 ovarian): > 10 µM
- TGI (PC-3 prostate): > 10 µM
- TGI (SW-620 colon): > 10 µM
- TGI (IGROV1 ovarian): > 10 µM
- TGI (TK-10 renal): > 10 µM
- TGI (SK-MEL-28 melanoma): > 10 µM
- TGI (DU-145 prostate): > 10 µM
- TGI (MDA-MB-435): > 10 µM
- TGI (SN12C renal): > 10 µM
- TGI (SF-268 CNS): > 10 µM
- TGI (A549 NSCLC): > 10 µM
- TGI (OVCAR-3 ovarian): > 10 µM
- TGI (KM12 colon): > 10 µM
- TGI (OVCAR-4 ovarian): > 10 µM
- TGI (UO-31 renal): > 10 µM
- TGI (EKVX NSCLC): > 10 µM
- TGI (NCI/ADR-RES ovarian): > 10 µM
- TGI (U251 CNS): > 10 µM
- TGI (COLO 205 colon): > 10 µM
- TGI (CAKI-1 renal): > 10 µM
- TGI (HT29 colon): > 10 µM
- TGI (MDA-N): > 10 µM
- TGI (SNB-75 CNS): > 10 µM

SMILES: CCc1n[nH]c(=O)n1/N=C/c1c(O)ccc2ccccc12
- TGI (ACHN renal): > 100 µM
- TGI (HOP-92 NSCLC): > 100 µM
- TGI (HCT-116 colon): > 100 µM
- TGI (SF-539 CNS): > 100 µM
- TGI (HCT-15 colon): > 100 µM
- TGI (SF-295 CNS): > 100 µM
- TGI (MCF7 breast): > 100 µM
- TGI (NCI-H23 lung): > 100 µM
- TGI (SNB-19 CNS): > 100 µM
- TGI (OVCAR-5 ovarian): > 100 µM
- TGI (MDA-MB-231 breast): > 100 µM
- TGI (SK-MEL-5 melanoma): > 100 µM
- TGI (M14 melanoma): > 100 µM
- TGI (RXF 393 renal): > 100 µM
- TGI (OVCAR-8 ovarian): > 100 µM
- TGI (UACC-257 melanoma): > 100 µM
- TGI (MOLT-4 leukemia): > 100 µM
- TGI (SK-OV-3 ovarian): > 100 µM
- TGI (PC-3 prostate): > 100 µM
- TGI (SW-620 colon): > 100 µM
- TGI (IGROV1 ovarian): > 100 µM
- TGI (SR leukemia): > 100 µM
- TGI (K-562 leukemia): > 100 µM
- TGI (HCC-2998 colon): > 100 µM
- TGI (TK-10 renal): > 100 µM
- TGI (SK-MEL-28 melanoma): > 100 µM
- TGI (DU-145 prostate): > 100 µM
- TGI (MDA-MB-435): > 100 µM
- TGI (SN12C renal): > 100 µM
- TGI (UACC-62 melanoma): > 100 µM
- TGI (RPMI-8226 leukemia): > 100 µM
- TGI (SF-268 CNS): > 100 µM
- TGI (A549 NSCLC): > 100 µM
- TGI (OVCAR-3 ovarian): > 100 µM
- TGI (KM12 colon): > 100 µM
- TGI (HOP-62 NSCLC): > 100 µM
- TGI (786-0 renal): > 100 µM
- TGI (OVCAR-4 ovarian): > 100 µM
- TGI (UO-31 renal): > 100 µM
- TGI (EKVX NSCLC): > 100 µM
- TGI (NCI/ADR-RES ovarian): > 100 µM
- TGI (NCI-H522 lung): > 100 µM
- TGI (U251 CNS): > 100 µM
- TGI (COLO 205 colon): > 100 µM
- TGI (SK-MEL-2 melanoma): > 100 µM
- TGI (BT-549 breast): > 100 µM
- TGI (LOX IMVI melanoma): > 100 µM
- TGI (CCRF-CEM leukemia): > 100 µM
- TGI (MDA-N): > 100 µM
- TGI (SNB-75 CNS): > 100 µM
